Test results reported in patent US8691865B2 (AbbVie Inc., priority 2008, dated 2014).

Biological target: human Cav2.2 (Homo sapiens, UniProt Q00975)
Test: Assessment of calcium channel activity using FLIPR (Ca2+ influx in IMR32 cells)
Assay type: cell-based
Conditions: not given
In short: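 IC50 values derive from nonlinear sigmoidal fitting of percent inhibition, relative to inhibitor-free activity, of Ca2+ influx read by FLIPR. Cells were IMR32 human neuroblastoma, plated at 1−1.2×10^5 per well and grown 48 h at 37 °C.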

human Cav2.2, sequence (Q00975 whole entry): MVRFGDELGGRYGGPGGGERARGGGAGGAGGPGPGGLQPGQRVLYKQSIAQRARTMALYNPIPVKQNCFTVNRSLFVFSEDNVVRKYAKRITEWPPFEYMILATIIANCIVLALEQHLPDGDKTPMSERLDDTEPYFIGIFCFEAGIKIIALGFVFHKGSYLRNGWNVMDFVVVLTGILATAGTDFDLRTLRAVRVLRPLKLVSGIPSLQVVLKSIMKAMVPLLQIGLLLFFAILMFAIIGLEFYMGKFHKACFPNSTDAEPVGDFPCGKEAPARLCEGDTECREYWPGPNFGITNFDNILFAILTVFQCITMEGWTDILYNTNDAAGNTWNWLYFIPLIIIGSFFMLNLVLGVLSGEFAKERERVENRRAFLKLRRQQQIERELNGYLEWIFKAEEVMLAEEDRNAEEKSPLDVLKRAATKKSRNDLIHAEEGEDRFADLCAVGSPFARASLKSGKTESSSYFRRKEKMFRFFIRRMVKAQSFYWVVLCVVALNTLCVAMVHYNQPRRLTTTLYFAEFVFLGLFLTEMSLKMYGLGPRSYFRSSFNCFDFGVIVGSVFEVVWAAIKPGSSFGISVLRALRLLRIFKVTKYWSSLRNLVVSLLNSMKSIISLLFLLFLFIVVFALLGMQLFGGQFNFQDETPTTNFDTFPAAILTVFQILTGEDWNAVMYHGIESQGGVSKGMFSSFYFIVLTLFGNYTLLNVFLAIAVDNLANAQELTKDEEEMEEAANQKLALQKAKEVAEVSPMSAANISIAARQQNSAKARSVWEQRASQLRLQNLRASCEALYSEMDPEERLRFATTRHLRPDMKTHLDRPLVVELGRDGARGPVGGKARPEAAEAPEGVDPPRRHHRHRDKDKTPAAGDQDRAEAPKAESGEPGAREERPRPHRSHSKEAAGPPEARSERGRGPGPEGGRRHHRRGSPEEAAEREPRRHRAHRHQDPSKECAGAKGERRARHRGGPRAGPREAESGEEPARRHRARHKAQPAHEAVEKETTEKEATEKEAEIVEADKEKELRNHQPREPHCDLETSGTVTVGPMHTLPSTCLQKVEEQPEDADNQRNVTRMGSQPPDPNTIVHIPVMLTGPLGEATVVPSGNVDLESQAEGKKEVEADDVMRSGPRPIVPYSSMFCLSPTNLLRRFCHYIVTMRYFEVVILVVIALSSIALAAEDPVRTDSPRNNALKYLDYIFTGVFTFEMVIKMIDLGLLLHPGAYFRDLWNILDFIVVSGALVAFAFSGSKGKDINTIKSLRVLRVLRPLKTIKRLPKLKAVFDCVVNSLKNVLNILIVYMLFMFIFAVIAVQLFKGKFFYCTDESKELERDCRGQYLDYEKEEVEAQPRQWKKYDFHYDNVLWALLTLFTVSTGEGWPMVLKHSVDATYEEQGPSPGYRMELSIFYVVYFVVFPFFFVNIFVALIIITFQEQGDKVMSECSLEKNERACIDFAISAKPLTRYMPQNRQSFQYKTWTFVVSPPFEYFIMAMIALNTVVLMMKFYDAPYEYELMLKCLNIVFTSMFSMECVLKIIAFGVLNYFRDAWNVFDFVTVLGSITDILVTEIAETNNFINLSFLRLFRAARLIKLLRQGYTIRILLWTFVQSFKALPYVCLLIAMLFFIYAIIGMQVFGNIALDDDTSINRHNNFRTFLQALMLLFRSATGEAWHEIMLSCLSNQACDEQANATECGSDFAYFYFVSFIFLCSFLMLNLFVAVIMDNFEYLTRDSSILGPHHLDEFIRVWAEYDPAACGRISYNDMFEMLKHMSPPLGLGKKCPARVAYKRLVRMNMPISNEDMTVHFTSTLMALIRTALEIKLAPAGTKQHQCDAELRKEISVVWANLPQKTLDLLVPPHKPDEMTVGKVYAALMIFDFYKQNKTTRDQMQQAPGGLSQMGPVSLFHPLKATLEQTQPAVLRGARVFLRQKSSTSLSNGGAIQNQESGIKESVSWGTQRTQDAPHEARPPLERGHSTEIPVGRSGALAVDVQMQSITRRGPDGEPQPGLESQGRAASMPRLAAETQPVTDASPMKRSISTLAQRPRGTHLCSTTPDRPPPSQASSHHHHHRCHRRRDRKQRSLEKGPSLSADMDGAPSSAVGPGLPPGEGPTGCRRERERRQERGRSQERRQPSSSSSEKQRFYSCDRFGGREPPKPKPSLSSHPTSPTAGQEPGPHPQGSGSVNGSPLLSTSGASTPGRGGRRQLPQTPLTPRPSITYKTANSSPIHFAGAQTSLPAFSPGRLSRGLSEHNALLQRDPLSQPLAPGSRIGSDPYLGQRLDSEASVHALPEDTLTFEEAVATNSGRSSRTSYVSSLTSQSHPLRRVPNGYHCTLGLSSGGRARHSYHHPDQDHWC
human Cav2.2, sequence (P54289 25-956 partner limits assumed): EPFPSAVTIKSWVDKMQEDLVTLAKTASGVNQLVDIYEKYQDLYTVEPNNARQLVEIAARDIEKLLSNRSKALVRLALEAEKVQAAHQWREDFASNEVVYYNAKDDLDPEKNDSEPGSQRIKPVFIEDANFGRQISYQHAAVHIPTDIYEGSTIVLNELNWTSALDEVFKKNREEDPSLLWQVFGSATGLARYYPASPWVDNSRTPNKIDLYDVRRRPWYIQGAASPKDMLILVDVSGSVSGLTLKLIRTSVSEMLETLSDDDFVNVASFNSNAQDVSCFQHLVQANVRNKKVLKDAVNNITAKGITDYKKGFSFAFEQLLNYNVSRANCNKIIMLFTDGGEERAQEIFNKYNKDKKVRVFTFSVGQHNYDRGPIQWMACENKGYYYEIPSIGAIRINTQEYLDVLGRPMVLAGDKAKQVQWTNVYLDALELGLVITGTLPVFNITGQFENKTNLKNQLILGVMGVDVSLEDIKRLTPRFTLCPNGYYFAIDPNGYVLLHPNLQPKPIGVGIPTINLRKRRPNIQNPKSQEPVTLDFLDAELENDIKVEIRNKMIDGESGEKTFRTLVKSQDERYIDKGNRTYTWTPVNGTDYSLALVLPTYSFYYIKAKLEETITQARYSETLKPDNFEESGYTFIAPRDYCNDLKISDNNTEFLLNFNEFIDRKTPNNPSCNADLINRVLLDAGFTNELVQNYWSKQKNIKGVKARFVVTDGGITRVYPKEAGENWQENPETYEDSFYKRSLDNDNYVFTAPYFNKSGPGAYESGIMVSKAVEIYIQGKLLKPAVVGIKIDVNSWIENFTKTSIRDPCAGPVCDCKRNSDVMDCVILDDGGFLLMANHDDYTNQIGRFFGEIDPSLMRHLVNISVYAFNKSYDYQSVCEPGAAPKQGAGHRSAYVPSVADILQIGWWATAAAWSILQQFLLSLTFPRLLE
human Cav2.2, sequence (P54289 957-1103 partner limits assumed): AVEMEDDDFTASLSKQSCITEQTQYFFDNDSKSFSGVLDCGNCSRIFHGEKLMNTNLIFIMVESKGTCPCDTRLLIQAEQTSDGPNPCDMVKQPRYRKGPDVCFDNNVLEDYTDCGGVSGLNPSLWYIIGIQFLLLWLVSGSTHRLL
human Cav2.2, sequence (P54284 whole entry partner): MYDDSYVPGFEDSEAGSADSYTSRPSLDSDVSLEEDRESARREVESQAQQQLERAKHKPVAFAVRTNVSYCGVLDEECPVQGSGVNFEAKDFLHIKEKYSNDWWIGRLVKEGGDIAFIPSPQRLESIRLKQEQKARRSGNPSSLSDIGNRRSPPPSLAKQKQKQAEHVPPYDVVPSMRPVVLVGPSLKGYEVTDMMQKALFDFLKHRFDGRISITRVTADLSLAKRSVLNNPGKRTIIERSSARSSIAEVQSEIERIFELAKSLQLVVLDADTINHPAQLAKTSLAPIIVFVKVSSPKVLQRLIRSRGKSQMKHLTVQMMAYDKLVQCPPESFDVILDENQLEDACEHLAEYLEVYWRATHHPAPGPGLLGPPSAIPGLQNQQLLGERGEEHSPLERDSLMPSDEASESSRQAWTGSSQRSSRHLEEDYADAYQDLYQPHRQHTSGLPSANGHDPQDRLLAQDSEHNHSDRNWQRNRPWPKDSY

| IC50 [µM] | Compound |
| --- | --- |
| 1.14 | O=C(N[C@@H]1CC[C@H]2CN(Cc3cccc(C(F)(F)F)c3)C[C@H]21)C(c1ccccc1)c1ccccc1 (relative stereo) [Example 145, 2,2-diphenyl-N-{(3aS*,4R*,6aR*)-2-[3-(trifluoromethyl)benzyl]octahydrocyclopenta[c]pyrrol-4-yl}acetamide] |
| 11.9 | CN[C@@H](CC(C)C)C(=O)N[C@H]1CC[C@@H]2CN(c3ccnc(C(F)(F)F)n3)C[C@@H]21 [Example 723, N^2-methyl-N-{(3aR,4S,6aS)-2-[2-(trifluoromethyl)pyrimidin-4-yl]octahydrocyclopenta[c]pyrrol-4-yl}-L-leucinamide] |
| 3.35 | FC(F)(F)c1cccc(N2C[C@H]3CC[C@H](NCc4c[nH]cn4)[C@H]3C2)n1 [Example 677, (3aR,4S,6aS)-N-(1H-imidazol-4-ylmethyl)-2-[6-(trifluoromethyl)pyridin-2-yl]octahydrocyclopenta[c]pyrrol-4-amine] |
| 0.95 | CN[C@H](C(=O)N[C@H]1CC[C@@H]2CN(c3cccc(C(F)(F)F)n3)C[C@@H]21)C(C)C [Example 764, N^2-methyl-N-{(3aR,4S,6aS)-2-[6-(trifluoromethyl)pyridin-2-yl]octahydrocyclopenta[c]pyrrol-4-yl}-L-valinamide] |
| 0.92 | O=C(N[C@H]1CC[C@H]2CN(Cc3ccccc3)C[C@H]21)C(c1ccccc1)C1CCCC1 (relative stereo) [Example 7, N-[(3aS*,4S*,6aR*)-2-benzyloctahydrocyclopenta[c]pyrrol-4-yl]-2-cyclopentyl-2-phenylacetamide] |
| 1.69 | O=C(N[C@H]1CC[C@@H]2CN(c3cccc(C(F)(F)F)n3)C[C@@H]21)c1ccccc1O [Example 562, 2-hydroxy-N-{(3aR,4S,6aS)-2-[6-(trifluoromethyl)pyridin-2-yl]octahydrocyclopenta[c]pyrrol-4-yl}benzamide] |
| > 30 | CC[C@H](C)[C@H](NC)C(=O)N[C@@H]1CC[C@H]2CN(Cc3ccccc3)C[C@H]21 [Example 354, N^1-[(3aS,4R,6aR)-2-benzyloctahydrocyclopenta[c]pyrrol-4-yl]-N^2-methyl-L-isoleucinamide] |
| 2.99 | FC(F)(F)c1cccc(N2C[C@H]3CC[C@H](NCc4cc5cc(Cl)ccc5[nH]4)[C@H]3C2)n1 [Example 665, (3aR,4S,6aS)-N-[(5-chloro-1H-indol-2-yl)methyl]-2-[6-(trifluoromethyl)pyridin-2-yl]octahydrocyclopenta[c]pyrrol-4-amine] |
| 1.04 | O=C(N[C@H]1CC[C@H]2CN(Cc3ccccc3)C[C@H]21)C1(c2ccccc2)CCCCC1 (relative stereo) [Example 9, N-[(3aS*,4S*,6aR*)-2-benzyloctahydrocyclopenta[c]pyrrol-4-yl]-1-phenylcyclohexanecarboxamide] |
| > 9.5 | CN[C@@H](C)C(=O)N[C@H]1CC[C@@H]2CN(c3ccc(C(F)(F)F)cc3)C[C@@H]21 [Example 753, N^2-methyl-N-{(3aR,4S,6aS)-2-[4-(trifluoromethyl)phenyl]octahydrocyclopenta[c]pyrrol-4-yl}-L-alaninamide] |
| 6.78 | CNC(C)(C)C(=O)N[C@H]1CC[C@@H]2CN(c3ccc(C(F)(F)F)cc3)C[C@@H]21 [Example 754, N^2,2-dimethyl-N-{(3aR,4S,6aS)-2-[4-(trifluoromethyl)phenyl]octahydrocyclopenta[c]pyrrol-4-yl}alaninamide] |
| 1.8 | CN[C@@H](CC(C)C)C(=O)N[C@H]1CC[C@@H]2CN(c3ccc(OC(F)(F)F)c(F)c3)C[C@@H]21 [Example 657, N-{(3aR,4S,6aS)-2-[3-fluoro-4-(trifluoromethoxy)phenyl]octahydrocyclopenta[c]pyrrol-4-yl}-N^2-methyl-L-leucinamide] |
| 0.95 | CCCC(CCC)C(=O)N[C@H]1CC[C@H]2CN(Cc3cccc(C(F)(F)F)c3)C[C@H]21 (relative stereo) [Example 126, 2-propyl-N-{(3aS*,4S*,6aR*)-2-[3-(trifluoromethyl)benzyl]octahydrocyclopenta[c]pyrrol-4-yl}pentanamide] |
| 2.16 | O=C(N[C@H]1CC[C@@H]2CN(c3ccccc3OC(F)(F)F)C[C@@H]21)[C@@H]1C[C@@H](F)CN1 [Example 656, (4R)-4-fluoro-N-{(3aR,4S,6aS)-2-[2-(trifluoromethoxy)phenyl]octahydrocyclopenta[c]pyrrol-4-yl}-L-prolinamide] |
| 2.98 | CN[C@@H](CC(C)C)C(=O)N[C@@H]1CC[C@H]2CN(c3ccc(C(F)(F)F)cn3)C[C@H]21 [Example 738, N^2-methyl-N-{(3aS,4R,6aR)-2-[5-(trifluoromethyl)pyridin-2-yl]octahydrocyclopenta[c]pyrrol-4-yl}-L-leucinamide] |
| > 30 | CN[C@@H](CC(C)C)C(=O)N[C@H]1CC[C@@H]2CN(Cc3ccccc3)C[C@@H]21 [Example 348, N^1-[(3aR,4S,6aS)-2-benzyloctahydrocyclopenta[c]pyrrol-4-yl]-N^2-methyl-L-leucinamide] |
| 6.93 | CN[C@@H](CC(C)C)C(=O)N[C@H]1CC[C@@H]2CN(c3cccnc3C(F)(F)F)C[C@@H]21 [Example 767, N^2-methyl-N-{(3aR,4S,6aS)-2-[2-(trifluoromethyl)pyridin-3-yl]octahydrocyclopenta[c]pyrrol-4-yl}-L-leucinamide] |
| 1.38 | O=C(N[C@H]1CC[C@@H]2CN(c3cccc(C(F)(F)F)n3)C[C@@H]21)c1cc2occc2[nH]1 [Example 574, N-{(3aR,4S,6aS)-2-[6-(trifluoromethyl)pyridin-2-yl]octahydrocyclopenta[c]pyrrol-4-yl}-4H-furo[3,2-b]pyrrole-5-carboxamide] |
| > 30 | CCC[C@H](NC(=O)OC(C)C)C(=O)N[C@H]1CC[C@@H]2CN(c3ccc(C(F)(F)F)cn3)C[C@@H]21 [Example 263, isopropyl(S)-1-oxo-1-((3aR,4S,6aS)-2-(5-(trifluoromethyl)pyridin-2-yl)octahydrocyclopenta[c]pyrrol-4-ylamino)pentan-2-ylcarbamate] |
| 1.03 | FC(F)(F)c1cccc(N2C[C@H]3CC[C@H](NCc4c[nH]c(-c5ccccc5)n4)[C@H]3C2)n1 [Example 688, (3aR,4S,6aS)-N-[(2-phenyl-1H-imidazol-4-yl)methyl]-2-[6-(trifluoromethyl)pyridin-2-yl]octahydrocyclopenta[c]pyrrol-4-amine] |
| 2.99 | Cc1oncc1C(=O)N[C@H]1CC[C@@H]2CN(c3cccc(C(F)(F)F)n3)C[C@@H]21 [Example 581, 5-methyl-N-{(3aR,4S,6aS)-2-[6-(trifluoromethyl)pyridin-2-yl]octahydrocyclopenta[c]pyrrol-4-yl}-1,2-oxazole-4-carboxamide] |
| > 30 | CCC[C@H](NC)C(=O)N[C@@H]1CC[C@H]2CN(Cc3ccccc3)C[C@H]21 [Example 352, N^1-[(3aS,4R,6aR)-2-benzyloctahydrocyclopenta[c]pyrrol-4-yl]-N^2-methyl-L-norvalinamide] |
| 3.73 | CN[C@@H](CC(C)C)C(=O)N[C@H]1CC[C@@H]2CN(c3cccc(C)c3)C[C@@H]21 [Example 636, N^2-methyl-N-[(3aR,4S,6aS)-2-(3-methylphenyl)octahydrocyclopenta[c]pyrrol-4-yl]-L-leucinamide] |
| 0.65 | CN[C@@H](CC(C)C)C(=O)N[C@H]1CC[C@@H]2CN(c3ccccc3OC(F)(F)F)C[C@@H]21 [Example 699, N^2-methyl-N-{(3aR,4S,6aS)-2-[2-(trifluoromethoxy)phenyl]octahydrocyclopenta[c]pyrrol-4-yl}-L-leucinamide] |
| 1.13 | CN[C@@H](CC(C)C)C(=O)N[C@H]1CC[C@@H]2CN(c3ccc(F)c(C(F)F)c3)C[C@@H]21 [Example 769, N-{(3aR,4S,6aS)-2-[3-(difluoromethyl)-4-fluorophenyl]octahydrocyclopenta[c]pyrrol-4-yl}-N^2-methyl-L-leucinamide] |
| 1.01 | Cc1c[nH]c(C(=O)N[C@H]2CC[C@@H]3CN(c4cccc(C(F)(F)F)n4)C[C@@H]32)c1 [Example 572, 4-methyl-N-{(3aR,4S,6aS)-2-[6-(trifluoromethyl)pyridin-2-yl]octahydrocyclopenta[c]pyrrol-4-yl}-1H-pyrrole-2-carboxamide] |

| Compound | IC50 [µM] |
| --- | --- |
| N[C@H]1CC[C@@H]2CN(c3cccc(C(F)(F)F)c3)C[C@@H]21 [Example 605, (3aR,4S,6aS)-2-[3-(trifluoromethyl)phenyl]octahydrocyclopenta[c]pyrrol-4-amine] | 4.33 |

Same assay, conditions: read-out: IC50 (μM) or percent inhibition (* indicates 3 minute incubation, otherwise 60 minute); IC50; 60 minute pre-incubation with compound; IMR32 cells, 80 mM KCl depolarization

| IC50 [µM] | Compound |
| --- | --- |
| 7.8 | CCN(CC)[C@H]1CC[C@@H]2CN(S(=O)(=O)c3ccc(C(F)(F)F)cc3Cl)C[C@@H]21 [Example 294, (3aR,4S,6aS)-2-{[2-chloro-4-(trifluoromethyl)phenyl]sulfonyl}-N,N-diethyloctahydrocyclopenta[c]pyrrol-4-amine] |
| 3.26 | O=C(N[C@H]1CC[C@H]2CN(Cc3cccnc3)C[C@H]21)C(C1CCCCC1)C1CCCCC1 [Example 73, 2,2-dicyclohexyl-N-[(3aS,4S,6aR)-2-(pyridin-3-ylmethyl)octahydrocyclopenta[c]pyrrol-4-yl]acetamide] |
| 9.26 | CN[C@@H](CC(C)C)C(=O)N[C@@H]1CC[C@H]2CN(Cc3ccc(F)cc3)C[C@H]21 [Example 450, N^1-[(3aS,4R,6aR)-2-(4-fluorobenzyl)octahydrocyclopenta[c]pyrrol-4-yl]-N^2-methyl-L-leucinamide] |
| 2.81 | CC(C)C(C(=O)N[C@H]1CC[C@@H]2CN(CCCc3cc(F)cc(Cl)c3)C[C@@H]21)c1ccccc1 (stereo partly drawn) [Example 114, N-{(3aR,4S,6aS)-2-[3-(3-chloro-5-fluorophenyl)propyl]octahydrocyclopenta[c]pyrrol-4-yl}-3-methyl-2-phenylbutanamide] |

| Compound | IC50 [µM] |
| --- | --- |
| 4-methyl-N^1-{(3aR,4S,6aS)-2-[2-(methylsulfonyl)pyrimidin-5-yl]octahydrocyclopenta[c]pyrrol-4-yl}-L-leucinamide [Example 442] | 7.18 |
